According to ChEMBL document CHEMBL4396916, “Novel potent substituted 4-amino-2-thiopyrimidines as dual VEGFR-2 and BRAF kinase inhibitors” (Eur J Med Chem, 2019):

Key:
[1] = target: Vascular endothelial growth factor receptor 2 (Homo sapiens, UniProt P35968); test: Inhibition of human N-terminal GST tagged VEGFR-2 expressed in baculovirus infected Sf9 cells using poly (Glu,Tyr) 4:1 as substrate in presence of ATP by Kinase-Glo luminescence assay
[2] = test system: MCF7; test: Cytotoxicity against human MCF7 cells expressing VEGFR2 and wild type BRAF measured after 48 hrs by sulforhodamine B assay; type: functional, cell-based; conditions: MCF7, 48 h
[3] = test system: T47D; test: Cytotoxicity against human T47D cells expressing wild type BRAF measured after 48 hrs by sulforhodamine B assay; type: functional, cell-based
[4] = test system: MCF7; test: Inhibition of VEGFR2 level in human MCF7 cells at 10 uM measured after 48 hrs by ELISA relative to control; type: functional; conditions: MCF7, 48 h
[5] = test system: A549; test: Growth inhibition of human A549/ATCC cells at 10 uM incubated for 48 hrs by sulforhodamine B assay relative to control; type: functional; conditions: A549, 48 h, read-out: GI
[6] = test system: EKVX; test: Growth inhibition of human EKVX cells at 10 uM incubated for 48 hrs by sulforhodamine B assay relative to control; type: functional; conditions: read-out: GI
[7] = test system: HOP-92; test: Growth inhibition of human HOP92 cells at 10 uM incubated for 48 hrs by sulforhodamine B assay relative to control; type: functional; conditions: HOP-92, 48 h, read-out: GI
[8] = test system: NCI-H226; test: Growth inhibition of human NCI-H226 cells at 10 uM incubated for 48 hrs by sulforhodamine B assay relative to control; type: functional; conditions: NCI-H226, 48 h, read-out: GI
[9] = test system: NCI-H522; test: Growth inhibition of human NCI-H522 cells at 10 uM incubated for 48 hrs by sulforhodamine B assay relative to control; type: functional; conditions: NCI-H522, 48 h, read-out: GI
[10] = test system: SNB-75; test: Growth inhibition of human SNB75 cells at 10 uM incubated for 48 hrs by sulforhodamine B assay relative to control; type: functional; conditions: SNB-75, 48 h, read-out: GI
[11] = test system: Malme-3M; test: Growth inhibition of human MALME-3M cells at 10 uM incubated for 48 hrs by sulforhodamine B assay relative to control; type: functional; conditions: read-out: GI
[12] = test system: UACC-62; test: Growth inhibition of human UACC62 cells at 10 uM incubated for 48 hrs by sulforhodamine B assay relative to control; type: functional; conditions: UACC-62, 48 h, read-out: GI
[13] = test system: IGROV-1; test: Growth inhibition of human IGROV1 cells at 10 uM incubated for 48 hrs by sulforhodamine B assay relative to control; type: functional; conditions: IGROV-1, 48 h, read-out: GI
[14] = test system: A498; test: Growth inhibition of human A498 cells at 10 uM incubated for 48 hrs by sulforhodamine B assay relative to control; type: functional; conditions: A498, 48 h, read-out: GI
[15] = test system: CAKI-1; test: Growth inhibition of human Caki1 cells at 10 uM incubated for 48 hrs by sulforhodamine B assay relative to control; type: functional; conditions: CAKI-1, 48 h, read-out: GI
[16] = test system: UO-31; test: Growth inhibition of human UO31 cells at 10 uM incubated for 48 hrs by sulforhodamine B assay relative to control; type: functional; conditions: UO-31, 48 h, read-out: GI
[17] = test system: PC-3; test: Growth inhibition of human PC3 cells at 10 uM incubated for 48 hrs by sulforhodamine B assay relative to control; type: functional; conditions: PC-3, 48 h, read-out: GI
[18] = test system: MDA-MB-231; test: Growth inhibition of human MDA-MB-231 cells at 10 uM incubated for 48 hrs by sulforhodamine B assay relative to control; type: functional; conditions: MDA-MB-231, 48 h, read-out: GI
[19] = test system: Hs-578T; test: Growth inhibition of human Hs578T cells at 10 uM incubated for 48 hrs by sulforhodamine B assay relative to control; type: functional; conditions: read-out: GI
[20] = target: Serine/threonine-protein kinase B-raf (Homo sapiens, UniProt P15056); test: Inhibition of human wild type BRAF by Kinase-Glo luminescence assay
[21] = test system: CCRF-CEM; test: Growth inhibition of human CCRF-CEM cells at 10 uM incubated for 48 hrs by sulforhodamine B assay relative to control; type: functional; conditions: read-out: GI
[22] = test system: K562; test: Growth inhibition of human K562 cells at 10 uM incubated for 48 hrs by sulforhodamine B assay relative to control; type: functional; conditions: K562, 48 h, read-out: GI
[23] = test system: MOLT-4; test: Growth inhibition of human MOLT4 cells at 10 uM incubated for 48 hrs by sulforhodamine B assay relative to control; type: functional; conditions: MOLT-4, 48 h, read-out: GI
[24] = test system: RPMI-8226; test: Growth inhibition of human RPMI8226 cells at 10 uM incubated for 48 hrs by sulforhodamine B assay relative to control; type: functional; conditions: RPMI-8226, 48 h, read-out: GI
[25] = test system: SR; test: Growth inhibition of human SR cells at 10 uM incubated for 48 hrs by sulforhodamine B assay relative to control; type: functional; conditions: read-out: GI
[26] = test system: NCI-H23; test: Growth inhibition of human NCI-H23 cells at 10 uM incubated for 48 hrs by sulforhodamine B assay relative to control; type: functional; conditions: NCI-H23, 48 h, read-out: GI
[27] = test system: HCT-116; test: Growth inhibition of human HCT116 cells at 10 uM incubated for 48 hrs by sulforhodamine B assay relative to control; type: functional; conditions: HCT-116, 48 h, read-out: GI
[28] = test system: LOX IMVI; test: Growth inhibition of human LOXIMVI cells at 10 uM incubated for 48 hrs by sulforhodamine B assay relative to control; type: functional; conditions: read-out: GI
[29] = test system: SK-MEL-5; test: Growth inhibition of human SK-MEL-5 cells at 10 uM incubated for 48 hrs by sulforhodamine B assay relative to control; type: functional; conditions: SK-MEL-5, 48 h, read-out: GI
[30] = test system: OVCAR-8; test: Growth inhibition of human OVCAR8 cells at 10 uM incubated for 48 hrs by sulforhodamine B assay relative to control; type: functional; conditions: OVCAR-8, 48 h, read-out: GI
[31] = test system: NCI/ADR-RES; test: Growth inhibition of human NCI/ADR-RES cells at 10 uM incubated for 48 hrs by sulforhodamine B assay relative to control; type: functional; conditions: read-out: GI
[32] = test system: ACHN; test: Growth inhibition of human ACHN cells at 10 uM incubated for 48 hrs by sulforhodamine B assay relative to control; type: functional; conditions: read-out: GI
[33] = test system: SN12C; test: Growth inhibition of human SN12C cells at 10 uM incubated for 48 hrs by sulforhodamine B assay relative to control; type: functional; conditions: read-out: GI
[34] = test system: MCF7; test: Growth inhibition of human MCF7 cells at 10 uM incubated for 48 hrs by sulforhodamine B assay relative to control; type: functional; conditions: MCF7, 48 h, read-out: GI
[35] = test system: BT-549; test: Growth inhibition of human BT549 cells at 10 uM incubated for 48 hrs by sulforhodamine B assay relative to control; type: functional; conditions: BT-549, 48 h, read-out: GI
[36] = test system: T47D; test: Growth inhibition of human T47D cells at 10 uM incubated for 48 hrs by sulforhodamine B assay relative to control; type: functional; conditions: read-out: GI
[37] = test system: MDA-MB-468; test: Growth inhibition of human MDA-MB-468 cells at 10 uM incubated for 48 hrs by sulforhodamine B assay relative to control; type: functional; conditions: MDA-MB-468, 48 h, read-out: GI

Vascular endothelial growth factor receptor 2, sequence (P35968 whole entry): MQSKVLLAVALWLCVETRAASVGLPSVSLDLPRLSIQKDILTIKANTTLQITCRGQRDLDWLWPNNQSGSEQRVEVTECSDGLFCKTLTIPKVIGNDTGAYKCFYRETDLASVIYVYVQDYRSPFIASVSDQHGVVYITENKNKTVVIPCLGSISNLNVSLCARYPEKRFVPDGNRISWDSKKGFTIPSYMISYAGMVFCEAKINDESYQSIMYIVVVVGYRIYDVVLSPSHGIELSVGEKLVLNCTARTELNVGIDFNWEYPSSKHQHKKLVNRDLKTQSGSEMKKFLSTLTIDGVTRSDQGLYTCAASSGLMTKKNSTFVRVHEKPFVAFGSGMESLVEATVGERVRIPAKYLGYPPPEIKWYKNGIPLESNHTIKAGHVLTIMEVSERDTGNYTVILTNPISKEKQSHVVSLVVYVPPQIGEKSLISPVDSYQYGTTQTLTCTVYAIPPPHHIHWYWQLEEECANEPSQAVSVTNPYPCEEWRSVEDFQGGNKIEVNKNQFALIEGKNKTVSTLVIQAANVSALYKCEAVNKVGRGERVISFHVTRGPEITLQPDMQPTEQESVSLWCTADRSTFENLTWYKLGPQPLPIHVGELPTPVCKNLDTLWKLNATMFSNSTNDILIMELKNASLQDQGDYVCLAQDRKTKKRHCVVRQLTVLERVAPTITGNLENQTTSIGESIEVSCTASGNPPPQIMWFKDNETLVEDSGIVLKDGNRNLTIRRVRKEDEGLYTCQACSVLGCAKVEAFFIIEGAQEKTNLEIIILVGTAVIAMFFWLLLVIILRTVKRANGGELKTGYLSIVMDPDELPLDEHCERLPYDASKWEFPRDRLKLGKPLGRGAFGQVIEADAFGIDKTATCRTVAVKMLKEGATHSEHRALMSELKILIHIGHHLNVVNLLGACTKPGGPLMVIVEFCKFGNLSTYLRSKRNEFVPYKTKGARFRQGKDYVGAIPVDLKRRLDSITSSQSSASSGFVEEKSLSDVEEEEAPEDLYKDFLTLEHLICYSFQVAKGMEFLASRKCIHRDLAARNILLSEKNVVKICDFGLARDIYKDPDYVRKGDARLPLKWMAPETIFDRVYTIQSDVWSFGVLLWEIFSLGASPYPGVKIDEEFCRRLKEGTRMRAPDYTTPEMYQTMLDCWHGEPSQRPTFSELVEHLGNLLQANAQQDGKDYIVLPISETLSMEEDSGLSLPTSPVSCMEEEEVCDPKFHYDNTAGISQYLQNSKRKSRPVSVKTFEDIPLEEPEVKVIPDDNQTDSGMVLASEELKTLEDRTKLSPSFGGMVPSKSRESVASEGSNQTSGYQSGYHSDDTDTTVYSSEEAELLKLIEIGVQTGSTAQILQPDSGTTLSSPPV
Serine/threonine-protein kinase B-raf, sequence (P15056 whole entry): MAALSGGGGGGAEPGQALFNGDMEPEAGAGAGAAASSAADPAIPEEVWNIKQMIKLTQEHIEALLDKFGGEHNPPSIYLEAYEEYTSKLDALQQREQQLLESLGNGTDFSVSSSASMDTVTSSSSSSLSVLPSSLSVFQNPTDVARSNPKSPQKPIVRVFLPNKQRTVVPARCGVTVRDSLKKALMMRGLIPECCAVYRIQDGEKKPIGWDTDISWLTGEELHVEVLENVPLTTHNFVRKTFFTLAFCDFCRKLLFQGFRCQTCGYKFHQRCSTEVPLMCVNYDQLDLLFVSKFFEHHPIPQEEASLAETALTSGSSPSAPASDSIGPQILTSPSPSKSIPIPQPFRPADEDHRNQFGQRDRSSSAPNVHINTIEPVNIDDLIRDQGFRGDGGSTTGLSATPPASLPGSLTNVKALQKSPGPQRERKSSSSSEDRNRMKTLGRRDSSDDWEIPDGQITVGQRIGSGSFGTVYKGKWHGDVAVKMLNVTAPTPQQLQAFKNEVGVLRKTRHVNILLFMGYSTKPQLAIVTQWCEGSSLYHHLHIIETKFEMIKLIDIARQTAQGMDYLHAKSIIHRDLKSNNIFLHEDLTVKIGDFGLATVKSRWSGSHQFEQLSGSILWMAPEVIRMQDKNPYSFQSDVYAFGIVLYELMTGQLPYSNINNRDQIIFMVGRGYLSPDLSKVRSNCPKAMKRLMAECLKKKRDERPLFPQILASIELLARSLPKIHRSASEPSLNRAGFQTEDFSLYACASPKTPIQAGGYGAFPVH

N#Cc1ccc(C(=O)CSc2nccc(Nc3ccc(N4CCOCC4)cc3)n2)cc1
IC50 [1]: 1.1 µM
IC50 [2]: 69 µM

CCOC(=O)c1ccc(Nc2ccnc(SCC(=O)c3ccc(C(F)(F)F)cc3)n2)cc1
IC50 [1]: 1.96 µM
IC50 [2]: 19.6 µM
IC50 [3]: 32.1 µM
inhibition at 10 µM [4]: 76%

CC(=O)c1cccc(Nc2ccnc(SCC(=O)c3ccc(Cl)cc3)n2)c1
IC50 [1]: 0.48 µM
IC50 [2]: 53.6 µM
IC50 [3]: 33 µM

O=C(O)c1ccc(Nc2ccnc(SCC(=O)c3ccc(C(F)(F)F)cc3)n2)cc1
IC50 [1]: > 10 µM
inhibition of growth at 10 µM [5]: 10%
inhibition of growth at 10 µM [6]: 10%
inhibition of growth at 10 µM [7]: 16%
inhibition of growth at 10 µM [8]: 13%
inhibition of growth at 10 µM [9]: 15%
inhibition of growth at 10 µM [10]: 28%
inhibition of growth at 10 µM [11]: 30%
inhibition of growth at 10 µM [12]: 12%
inhibition of growth at 10 µM [13]: 13%
inhibition of growth at 10 µM [14]: 39%
inhibition of growth at 10 µM [15]: 19%
inhibition of growth at 10 µM [16]: 32%
inhibition of growth at 10 µM [17]: 12%
inhibition of growth at 10 µM [18]: 24%
inhibition of growth at 10 µM [19]: 10%
IC50 [2]: 67.5 µM

N#Cc1ccc(C(=O)CSc2nccc(Nc3ccc(C(=O)O)cc3)n2)cc1
IC50 [1]: 0.12 µM
IC50 [20]: 1.7 µM
IC50 [2]: 17.2 µM
inhibition at 10 µM [4]: 77%

CC(=O)c1ccc(Nc2ccnc(SCC(=O)c3ccc(Br)cc3)n2)cc1
IC50 [1]: 0.95 µM
inhibition of growth at 10 µM [21]: 30%
inhibition of growth at 10 µM [22]: 30%
inhibition of growth at 10 µM [23]: 39%
inhibition of growth at 10 µM [24]: 35%
inhibition of growth at 10 µM [25]: 25%
inhibition of growth at 10 µM [5]: 10%
inhibition of growth at 10 µM [8]: 25%
inhibition of growth at 10 µM [26]: 16%
inhibition of growth at 10 µM [9]: 29%
inhibition of growth at 10 µM [27]: 10%
inhibition of growth at 10 µM [10]: 13%
inhibition of growth at 10 µM [28]: 14%
inhibition of growth at 10 µM [29]: 17%
inhibition of growth at 10 µM [12]: 23%
inhibition of growth at 10 µM [13]: 12%
inhibition of growth at 10 µM [30]: 18%
inhibition of growth at 10 µM [31]: 31%
inhibition of growth at 10 µM [14]: 19%
inhibition of growth at 10 µM [32]: 10%
inhibition of growth at 10 µM [15]: 24%
inhibition of growth at 10 µM [33]: 14%
inhibition of growth at 10 µM [16]: 38%
inhibition of growth at 10 µM [17]: 25%
inhibition of growth at 10 µM [34]: 18%
inhibition of growth at 10 µM [18]: 12%
inhibition of growth at 10 µM [35]: 19%
inhibition of growth at 10 µM [36]: 44%
inhibition of growth at 10 µM [37]: 21%
IC50 [2]: 17.2 µM
inhibition at 10 µM [4]: 76%

CCOC(=O)c1ccc(Nc2ccnc(SCC(=O)c3ccc(OC)cc3)n2)cc1
IC50 [1]: 0.19 µM
IC50 [20]: 0.41 µM
IC50 [2]: 32.1 µM
IC50 [3]: 43.4 µM
inhibition at 10 µM [4]: 12%

O=C(O)c1ccc(Nc2ccnc(SCC(=O)c3ccc(Cl)cc3)n2)cc1
IC50 [1]: 0.17 µM
IC50 [20]: 0.37 µM
IC50 [2]: 37.2 µM
inhibition at 10 µM [4]: 35%

CNC(=O)c1cc(Oc2ccc(NC(=O)Nc3ccc(Cl)c(C(F)(F)F)c3)cc2)ccn1 [SORAFENIB]
IC50 [2]: 4.33 µM
IC50 [3]: 1.6 µM
inhibition at 10 µM [4]: 90%
